Data as given in US10125167B2, “Compositions and methods for treating MRSA infections and for sensitizing MRSA to beta-lactam antibiotics” (Arizona Board of Regents on behalf of Arizona State …, priority 2015, dated 2018).
Values after ≈ are worked out from the molar mass of the structure shown. Read-outs that look alike come from different tables or passages of the source.

Assays:
USA100 = assay: Synergy of ASU014 with antibiotics (MIC/FIC); format: cell-based, S. aureus; conditions: for Antibiotic MIC, Antibiotic Only: USA100; for Antibiotic MIC +¼ MIC (ASU014) / FIC +¼ MIC (ASU014): USA100, with ¼ MIC ASU014; for Antibiotic MIC +½ MIC (ASU014) / FIC +½ MIC (ASU014): USA100, with ½ MIC ASU014; for Antibiotic MIC +⅛ MIC (ASU014) / FIC +⅛ MIC (ASU014): USA100, with ⅛ MIC ASU014
[1] = tested on: MRSA (USA300) BEI: FOO3/HI168; assay: MIC against a panel of Gram-positive and Gram-negative bacteria; format: cell-based, Staphylococcus aureus
[2] = tested on: MRSA (USA500) BEI: HFH-30522; assay: as above; format: cell-based, Staphylococcus aureus
MSSA = assay: as above; format: cell-based, S. aureus
[3] = tested on: MRSA (USA400) BEI: HFH-30364; assay: as above; format: cell-based, Staphylococcus aureus
P. aeruginosa PAO1 = assay: as above; format: cell-based; conditions: Pseudomonas aeruginosa
[4] = tested on: MRSA (USA100) BEI: HFH-30123; assay: as above; format: cell-based; conditions: Staphylococcus aureus
USA300-HI168 = assay: Synergy of ASU014 with antibiotics (MIC/FIC); format: cell-based, S. aureus; conditions: for Antibiotic MIC, Antibiotic Only: USA300-HI168; for Antibiotic MIC +¼ MIC (ASU014) / FIC +¼ MIC (ASU014): USA300-HI168, with ¼ MIC ASU014; for Antibiotic MIC +½ MIC (ASU014) / FIC +½ MIC (ASU014): USA300-HI168, with ½ MIC ASU014
MRSA (USA300-LAC) = assay: MIC against a panel of Gram-positive and Gram-negative bacteria; format: cell-based, Staphylococcus aureus
MSSA UAB637 = assay: Synergy of ASU014 with antibiotics (MIC/FIC); format: cell-based, S. aureus
USA300-LAC = assay: Synergy of ASU014 with antibiotics (MIC/FIC); format: cell-based, S. aureus
[5] = Staphylococcus aureus, read-out: MIC
[6] = USA300-HI168, with ⅛ MIC ASU014

Compound	Antibiotic MIC, Antibiotic Only (USA100) [µg/mL]	Antibiotic MIC +¼ MIC (ASU014) (USA100) [µg/mL]	FIC +¼ MIC (ASU014) (USA100)	Antibiotic MIC +½ MIC (ASU014) (USA100) [µg/mL]	FIC +½ MIC (ASU014) (USA100)	Antibiotic MIC +⅛ MIC (ASU014) (USA100) [µg/mL]	FIC +⅛ MIC (ASU014) (USA100)	Antibiotic MIC, Antibiotic Only (USA300-HI168) [µg/mL]	Antibiotic MIC +¼ MIC (ASU014) (USA300-HI168) [µg/mL]	FIC +¼ MIC (ASU014) (USA300-HI168)	Antibiotic MIC +½ MIC (ASU014) (USA300-HI168) [µg/mL]	FIC +½ MIC (ASU014) (USA300-HI168)	Antibiotic MIC +⅛ MIC (ASU014) (USA300-HI168; [6]) [µg/mL]	also measured
CC1(C)S[C@@H]2[C@H](NC(=O)[C@H](N)c3ccc(O)cc3)C(=O)N2[C@H]1C(=O)O [Amoxicillin, amoxicillin]	>256	32	0.38	4	0.52	>256	–	–	–	–	–	–	–	MIC (USA100; Staphylococcus aureus, MRSA / USA100, this MRSA strain, antibiotic alone): > 256 µg/mL
O=C(O)c1cn(C2CC2)c2cc(N3CCNCC3)c(F)cc2c1=O [Cipro, Ciprofloxacin]	>32	>32	–	>32	–	>32	–	–	–	–	–	–	–	MIC [1, 5]: 0.5 µg/mL (≈ 1.51 µM); MIC [2, 5]: > 4 µg/mL; MIC (MSSA; [5]): 0.25 µg/mL (≈ 0.754 µM); MIC [3, 5]: 0.5 µg/mL (≈ 1.51 µM); MIC (P. aeruginosa PAO1): 0.5 µg/mL (≈ 1.51 µM); MIC [4]: > 4 µg/mL

Now from value to compound, other results behind:

Antibiotic MIC, Antibiotic Only (USA100) [µg/mL]	Antibiotic MIC +¼ MIC (ASU014) (USA100) [µg/mL]	FIC +¼ MIC (ASU014) (USA100)	Antibiotic MIC +½ MIC (ASU014) (USA100) [µg/mL]	FIC +½ MIC (ASU014) (USA100)	Antibiotic MIC +⅛ MIC (ASU014) (USA100) [µg/mL]	FIC +⅛ MIC (ASU014) (USA100)	Antibiotic MIC, Antibiotic Only (USA300-HI168) [µg/mL]	Antibiotic MIC +¼ MIC (ASU014) (USA300-HI168) [µg/mL]	FIC +¼ MIC (ASU014) (USA300-HI168)	Antibiotic MIC +½ MIC (ASU014) (USA300-HI168) [µg/mL]	FIC +½ MIC (ASU014) (USA300-HI168)	Antibiotic MIC +⅛ MIC (ASU014) (USA300-HI168; [6]) [µg/mL]	Compound	also measured
32	2	0.31	2	0.56	8	0.38	–	–	–	–	–	–	CCOc1ccc2ccccc2c1C(=O)N[C@@H]1C(=O)N2[C@@H]1SC(C)(C)[C@@H]2C(=O)O [Nafcillin, nafcillin]	–
–	–	–	–	–	–	–	4	2	0.75	0.5	0.63	4	[H]/N=C(/N)N[C@H]1[C@H](O)[C@@H](O)[C@H](O[C@@H]2O[C@@H](C)[C@](O)(C=O)[C@H]2O[C@@H]2O[C@@H](CO)[C@H](O)[C@@H](O)[C@@H]2NC)[C@@H](N/C(N)=N\[H])[C@@H]1O [Streptomycin]	–
–	8	0.31	4	0.53	64	0.63	2	0.125	0.31	0.063	0.53	0.5	Cc1onc(-c2ccccc2)c1C(=O)N[C@@H]1C(=O)N2[C@@H]1SC(C)(C)[C@@H]2C(=O)O [Oxa, oxacillin]	MIC [1]: 32 µg/mL (≈ 79.7 µM); MIC (MRSA (USA300-LAC)): 64 µg/mL (≈ 159 µM); MIC [2]: 8 µg/mL (≈ 19.9 µM); FIC +⅛ MIC (ASU014) (USA300-HI168; [6]): 0.38; MIC (MSSA): <0.25 µg/mL; MIC [3]: 8 µg/mL (≈ 19.9 µM); Antibiotic MIC, Antibiotic Only (MSSA UAB637; MSSA UAB637): 0.125 µg/mL; Antibiotic MIC +¼ MIC (ASU014) (MSSA UAB637; MSSA UAB637, with ¼ MIC ASU014): 0.125 µg/mL; Antibiotic MIC +½ MIC (ASU014) (MSSA UAB637; MSSA UAB637, with ½ MIC ASU014): 0.125 µg/mL; Antibiotic MIC +⅛ MIC (ASU014) (MSSA UAB637; MSSA UAB637, with ⅛ MIC ASU014): 0.125 µg/mL; Antibiotic MIC, Antibiotic Only (USA300-LAC): 64 µg/mL; Antibiotic MIC +¼ MIC (ASU014) (USA300-LAC; with ¼ MIC ASU014): 4 µg/mL; FIC +¼ MIC (ASU014) (USA300-LAC; with ¼ MIC ASU014): 0.31; Antibiotic MIC +½ MIC (ASU014) (USA300-LAC; with ½ MIC ASU014): 4 µg/mL; FIC +½ MIC (ASU014) (USA300-LAC; with ½ MIC ASU014): 0.56; Antibiotic MIC +⅛ MIC (ASU014) (USA300-LAC; with ⅛ MIC ASU014): 8 µg/mL; FIC +⅛ MIC (ASU014) (USA300-LAC; with ⅛ MIC ASU014): 0.25
